Results from US20230085307A1, “PYRIDAZINONE COMPOUND AND HERBICIDE” (NISSAN CHEMICAL CORPORATION, priority 2019, published 2023).

What was measured:
late watergrass = assay: Test Example 1: herbicidal activity, application before weed generation under submerged conditions (Table 16, symbol A); assay type: in vivo, late watergrass (Echinochloa oryzicola); conditions: 320 g/ha applied herbicide
How it was run: (§1)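 Submerged Wagner pots (alluvial soil, 4 cm water) sown with weed seeds and planted with 2.5-leaf rice seedlings; emulsifiable concentrate diluted in water applied to water surface on sowing day. Held in greenhouse at 25-30 °C; injury scored 0-5 by herbicidal rate after three weeks.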

Japanese bulrush = assay: Test Example 1: herbicidal activity, application before weed generation under submerged conditions (Table 16, symbol B); assay type: in vivo, Japanese bulrush (Schoenoplectus juncoides); conditions: 320 g/ha applied herbicide
How it was run: as §1

oval-leafed pondweed = assay: Test Example 1: herbicidal activity, application before weed generation under submerged conditions (Table 16, symbol C); assay type: in vivo, oval-leafed pondweed (Monochoria vaginalis); conditions: 320 g/ha applied herbicide
How it was run: as §1

barnyard grass [1] = assay: Test Example 3: herbicidal effect by foliage application, Wagner pot (Table 18, symbol H); assay type: in vivo, barnyard grass (Echinochloa crus-galli); conditions: 320 g/ha
How it was run: (§2)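 Plants were sown in alluvial soil held under 0.1–0.5 cm standing water and grown 14 days in a greenhouse at 25–30 °C. An emulsifiable formulation, water-diluted to the set dose, was then sprayed onto the foliage, and effects were scored three weeks later using previously defined criteria.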

Chinese sprangletop = assay: Test Example 3: herbicidal effect by foliage application, Wagner pot (Table 18, symbol D); assay type: in vivo, chinese sprangletop (Leptochloa chinensis); conditions: 320 g/ha
How it was run: as §2

rice flat sedge = assay: Test Example 3: herbicidal effect by foliage application, Wagner pot (Table 18, symbol E); assay type: in vivo, rice flat sedge (Cyperus iria); conditions: 320 g/ha
How it was run: as §2

southern crabgrass [2] = assay: Test Example 4: herbicidal effect by soil treatment (Table 19, symbol F); assay type: in vivo, southern crabgrass (Digitaria ciliaris); conditions: AAH 320 g/ha
How it was run: (§3)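 In this soil treatment, the formulated compound reached the seeds only through the soil: seeds were buried about 1.5 cm deep in sterilized diluvial soil, then the diluted emulsion was sprayed over the surface. After three weeks at 25° C. to 30° C. in a greenhouse, effects were graded on criteria from an earlier test.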

green foxtail [3] = assay: Test Example 4: herbicidal effect by soil treatment (Table 19, symbol G); assay type: in vivo, green foxtail (Setaria viridis); conditions: AAH 320 g/ha
How it was run: as §3

barnyard grass [4] = assay: Test Example 4: herbicidal effect by soil treatment (Table 19, symbol H); assay type: in vivo, barnyard grass (Echinochloa crus-galli); conditions: AAH 320 g/ha
How it was run: as §3

wild oat [5] = assay: Test Example 4: herbicidal effect by soil treatment (Table 19, symbol I); assay type: in vivo, wild oat (Avena fatua); conditions: AAH 320 g/ha
How it was run: as §3

blackgrass [6] = assay: Test Example 4: herbicidal effect by soil treatment (Table 19, symbol J); assay type: in vivo, blackgrass (Alopecurus myosuroides); conditions: AAH 320 g/ha
How it was run: as §3

Italian ryegrass [7] = assay: Test Example 4: herbicidal effect by soil treatment (Table 19, symbol K); assay type: in vivo, Italian ryegrass (Lolium multiflorum); conditions: AAH 320 g/ha
How it was run: as §3

windgrass [8] = assay: Test Example 4: herbicidal effect by soil treatment (Table 19, symbol L); assay type: in vivo, windgrass (Apera spica-venti); conditions: AAH 320 g/ha
How it was run: as §3

velvetleaf [9] = assay: Test Example 4: herbicidal effect by soil treatment (Table 19, symbol M); assay type: in vivo, velvetleaf (Abutilon theophrasti); conditions: AAH 320 g/ha
How it was run: as §3

redroot pigweed [10] = assay: Test Example 4: herbicidal effect by soil treatment (Table 19, symbol N); assay type: in vivo, redroot pigweed (Amaranthus retroflexus); conditions: AAH 320 g/ha
How it was run: as §3

lambsquarters [11] = assay: Test Example 4: herbicidal effect by soil treatment (Table 19, symbol O); assay type: in vivo, lambsquarters (Chenopodium album); conditions: AAH 320 g/ha
How it was run: as §3

chickweed [12] = assay: Test Example 4: herbicidal effect by soil treatment (Table 19, symbol P); assay type: in vivo, common chickweed (Stellaria media); conditions: AAH 320 g/ha
How it was run: as §3

persian speedwell [13] = assay: Test Example 4: herbicidal effect by soil treatment (Table 19, symbol R); assay type: in vivo, Persian speedwell (Veronica persica); conditions: AAH 320 g/ha
How it was run: as §3

southern crabgrass [14] = assay: Test Example 5: herbicidal effect by foliage application, plastic box (Table 20, symbol F); assay type: in vivo, southern crabgrass (Digitaria ciliaris); conditions: foliage application, AAH 320 g/ha, three weeks after application
How it was run: (§4)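 Plants were sown into sterilized diluvial soil under about 1.5 cm cover and kept in a greenhouse at 25° C. to 30° C. Fourteen days on, foliage received an even spray of the diluted emulsion. Herbicidal or crop effect was judged three weeks afterwards.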

green foxtail [15] = assay: Test Example 5: herbicidal effect by foliage application, plastic box (Table 20, symbol G); assay type: in vivo, green foxtail (Setaria viridis); conditions: foliage application, AAH 320 g/ha, three weeks after application
How it was run: as §4

barnyard grass [16] = assay: Test Example 5: herbicidal effect by foliage application, plastic box (Table 20, symbol H); assay type: in vivo, barnyard grass (Echinochloa crus-galli); conditions: foliage application, AAH 320 g/ha, three weeks after application
How it was run: as §4

wild oat [17] = assay: Test Example 5: herbicidal effect by foliage application, plastic box (Table 20, symbol I); assay type: in vivo, wild oat (Avena fatua); conditions: foliage application, AAH 320 g/ha, three weeks after application
How it was run: as §4

blackgrass [18] = assay: Test Example 5: herbicidal effect by foliage application, plastic box (Table 20, symbol J); assay type: in vivo, blackgrass (Alopecurus myosuroides); conditions: foliage application, AAH 320 g/ha, three weeks after application
How it was run: as §4

Italian ryegrass [19] = assay: Test Example 5: herbicidal effect by foliage application, plastic box (Table 20, symbol K); assay type: in vivo, Italian ryegrass (Lolium multiflorum); conditions: foliage application, AAH 320 g/ha, three weeks after application
How it was run: as §4

windgrass [20] = assay: Test Example 5: herbicidal effect by foliage application, plastic box (Table 20, symbol L); assay type: in vivo, windgrass (Apera spica-venti); conditions: foliage application, AAH 320 g/ha, three weeks after application
How it was run: as §4

velvetleaf [21] = assay: Test Example 5: herbicidal effect by foliage application, plastic box (Table 20, symbol M); assay type: in vivo, velvetleaf (Abutilon theophrasti); conditions: foliage application, AAH 320 g/ha, three weeks after application
How it was run: as §4

redroot pigweed [22] = assay: Test Example 5: herbicidal effect by foliage application, plastic box (Table 20, symbol N); assay type: in vivo, redroot pigweed (Amaranthus retroflexus); conditions: foliage application, AAH 320 g/ha, three weeks after application
How it was run: as §4

lambsquarters [23] = assay: Test Example 5: herbicidal effect by foliage application, plastic box (Table 20, symbol O); assay type: in vivo, lambsquarters (Chenopodium album); conditions: foliage application, AAH 320 g/ha, three weeks after application
How it was run: as §4

chickweed [24] = assay: Test Example 5: herbicidal effect by foliage application, plastic box (Table 20, symbol P); assay type: in vivo, common chickweed (Stellaria media); conditions: foliage application, AAH 320 g/ha, three weeks after application
How it was run: as §4

persian speedwell [25] = assay: Test Example 5: herbicidal effect by foliage application, plastic box (Table 20, symbol R); assay type: in vivo, Persian speedwell (Veronica persica); conditions: foliage application, AAH 320 g/ha, three weeks after application
How it was run: as §4

SMILES	Herbicidal effect on A: late watergrass (grade 0-5) (late watergrass)	Herbicidal effect on B: Japanese bulrush (grade 0-5) (Japanese bulrush)	Herbicidal effect on C: oval-leafed pondweed (grade 0-5) (oval-leafed pondweed)	herbicidal effect on H (barnyard grass), rating 0-5 (barnyard grass [1])	herbicidal effect on D (Chinese sprangletop), rating 0-5 (Chinese sprangletop)	herbicidal effect on E (rice flat sedge), rating 0-5 (rice flat sedge)	F: southern crabgrass, herbicidal effect rating (southern crabgrass [2])	G: green foxtail, herbicidal effect rating (green foxtail [3])	H: barnyard grass, herbicidal effect rating (barnyard grass [4])	I: wild oat, herbicidal effect rating (wild oat [5])	J: blackgrass, herbicidal effect rating (blackgrass [6])	K: Italian ryegrass, herbicidal effect rating (Italian ryegrass [7])	L: windgrass, herbicidal effect rating (windgrass [8])	M: velvetleaf, herbicidal effect rating (velvetleaf [9])	N: redroot pigweed, herbicidal effect rating (redroot pigweed [10])	O: lambsquarters, herbicidal effect rating (lambsquarters [11])	P: chickweed, herbicidal effect rating (chickweed [12])	R: persian speedwell, herbicidal effect rating (persian speedwell [13])	F: southern crabgrass, herbicidal effect (southern crabgrass [14])	G: green foxtail, herbicidal effect (green foxtail [15])	other results
Cc1nn(C)c(=O)c(-c2c(-c3ccc(C(C)C)cc3)sc3ccccc23)c1O [1-125]	3 (Herbicidal rate of 40% or more and less than 70%)	0 (Herbicidal rate of 5% or less (almost no effect))	0 (Herbicidal rate of 5% or less (almost no effect))	5 (Herbicidal rate of 90% or more (almost completely withered))	4 (Herbicidal rate of 70% or more and less than 90%)	5 (Herbicidal rate of 90% or more (almost completely withered))	1 (Herbicidal rate of 5% or more and less than 20%)	3 (Herbicidal rate of 40% or more and less than 70%)	3 (Herbicidal rate of 40% or more and less than 70%)	0 (Herbicidal rate of 5% or less (almost no effect))	0 (Herbicidal rate of 5% or less (almost no effect))	5 (Herbicidal rate of 90% or more (almost completely withered))	0 (Herbicidal rate of 5% or less (almost no effect))	1 (Herbicidal rate of 5% or more and less than 20%)	5 (Herbicidal rate of 90% or more (almost completely withered))	5 (Herbicidal rate of 90% or more (almost completely withered))	1 (Herbicidal rate of 5% or more and less than 20%)	5 (Herbicidal rate of 90% or more (almost completely withered))	3 (Herbicidal rate of 40% or more and less than 70%)	5 (Herbicidal rate of 90% or more (almost completely withered))	H: barnyard grass, herbicidal effect (barnyard grass [16]): 5 (Herbicidal rate of 90% or more (almost completely withered)); I: wild oat, herbicidal effect (wild oat [17]): 0 (Herbicidal rate of 5% or less (almost no effect)); J: blackgrass, herbicidal effect (blackgrass [18]): 2 (Herbicidal rate of 20% or more and less than 40%); K: Italian ryegrass, herbicidal effect (Italian ryegrass [19]): 5 (Herbicidal rate of 90% or more (almost completely withered)); L: windgrass, herbicidal effect (windgrass [20]): 5 (Herbicidal rate of 90% or more (almost completely withered)); M: velvetleaf, herbicidal effect (velvetleaf [21]): 5 (Herbicidal rate of 90% or more (almost completely withered)); N: redroot pigweed, herbicidal effect (redroot pigweed [22]): 5 (Herbicidal rate of 90% or more (almost completely withered)); O: lambsquarters, herbicidal effect (lambsquarters [23]): 5 (Herbicidal rate of 90% or more (almost completely withered)); P: chickweed, herbicidal effect (chickweed [24]): 5 (Herbicidal rate of 90% or more (almost completely withered)); R: persian speedwell, herbicidal effect (persian speedwell [25]): 5 (Herbicidal rate of 90% or more (almost completely withered))
COCOc1c(C)nn(C)c(=O)c1-c1c(-c2ccc(OCc3ccccc3)cc2)sc2ccccc12 [1-135]	4 (Herbicidal rate of 70% or more and less than 90%)	3 (Herbicidal rate of 40% or more and less than 70%)	3 (Herbicidal rate of 40% or more and less than 70%)	2 (Herbicidal rate of 20% or more and less than 40%)	3 (Herbicidal rate of 40% or more and less than 70%)	3 (Herbicidal rate of 40% or more and less than 70%)	2 (Herbicidal rate of 20% or more and less than 40%)	0 (Herbicidal rate of 5% or less (almost no effect))	0 (Herbicidal rate of 5% or less (almost no effect))	0 (Herbicidal rate of 5% or less (almost no effect))	0 (Herbicidal rate of 5% or less (almost no effect))	0 (Herbicidal rate of 5% or less (almost no effect))	0 (Herbicidal rate of 5% or less (almost no effect))	0 (Herbicidal rate of 5% or less (almost no effect))	0 (Herbicidal rate of 5% or less (almost no effect))	0 (Herbicidal rate of 5% or less (almost no effect))	0 (Herbicidal rate of 5% or less (almost no effect))	3 (Herbicidal rate of 40% or more and less than 70%)	0 (Herbicidal rate of 5% or less (almost no effect))	4 (Herbicidal rate of 70% or more and less than 90%)	H: barnyard grass, herbicidal effect (barnyard grass [16]): 1 (Herbicidal rate of 5% or more and less than 20%); I: wild oat, herbicidal effect (wild oat [17]): 0 (Herbicidal rate of 5% or less (almost no effect)); J: blackgrass, herbicidal effect (blackgrass [18]): 0 (Herbicidal rate of 5% or less (almost no effect)); K: Italian ryegrass, herbicidal effect (Italian ryegrass [19]): 0 (Herbicidal rate of 5% or less (almost no effect)); L: windgrass, herbicidal effect (windgrass [20]): 0 (Herbicidal rate of 5% or less (almost no effect)); M: velvetleaf, herbicidal effect (velvetleaf [21]): 2 (Herbicidal rate of 20% or more and less than 40%); N: redroot pigweed, herbicidal effect (redroot pigweed [22]): 5 (Herbicidal rate of 90% or more (almost completely withered)); O: lambsquarters, herbicidal effect (lambsquarters [23]): 5 (Herbicidal rate of 90% or more (almost completely withered)); P: chickweed, herbicidal effect (chickweed [24]): 5 (Herbicidal rate of 90% or more (almost completely withered)); R: persian speedwell, herbicidal effect (persian speedwell [25]): 4 (Herbicidal rate of 70% or more and less than 90%)
